Measurements: patent US4036840A, “2-Substituted-s-triazolo[1,5a]pyrimidines” (ICN Pharmaceuticals, priority 1975, dated 1977)

Assays:
[1] = tested on: 3',5'-Cyclic AMP phosphodiesterase (PDE) from kidney; assay: 3',5'-Cyclic AMP phosphodiesterase (PDE) inhibition, rabbit kidney enzyme (Fraction II, low Km); type: biochemical; settings: relative to theophylline, cAMP about 1.7 × 10^-7 M, 30° C., 10 minutes, pH 7.5
[2] = tested on: 3',5'-Cyclic AMP phosphodiesterase (PDE) from lung; assay: 3',5'-Cyclic AMP phosphodiesterase (PDE) inhibition, rabbit lung enzyme (Fraction II, low Km); type: biochemical; settings: relative to theophylline, cAMP about 1.7 × 10^-7 M, 30° C., 10 minutes, pH 7.5

Compound	PDE Kidney; α (I50 theophylline / I50 compound) [1]	PDE Lung; α (I50 theophylline / I50 compound) [2]
Cc1cccc(CSc2nc3nc(C)cc(C)n3n2)c1 [Compound 14]	0.70	2.00
Cc1cc(C)n2nc(SC(C)C)nc2n1 [Compound 8]	1.30	0.10
Cc1ccc(CSc2nc3nc(C)cc(C)n3n2)cc1 [Compound 13]	1.00	6.20
CSc1nc2nc(C)cc(C)n2n1 [Compound 9]	0.25	0.50
Cc1cc(C)n2nc(SCc3ccc(Cl)cc3)nc2n1 [Compound 4, 2-(p-chlorobenzylthio)-5,7-dimethyl-s-triazolo[1,5a]pyrimidine]	4.0	4.00
Cc1cc(C)n2nc(SCc3ccc(C(=O)O)cc3)nc2n1 [Compound 12]	0.70	1.20
Cc1cc(C)n2nc(SCc3ccccc3C)nc2n1 [Compound 15]	4.00	3.50
Cc1cc(C)n2nc(SCC(C)C)nc2n1 [Compound 10]	0.50	0.10
CCCSc1nc2nc(C)cc(C)n2n1 [Compound 7]	1.00	0.90
CCOC(=O)C(Sc1nc2nc(C)cc(C)n2n1)C(=O)OCC [Compound 11]	0.00	0.50

Results, then the compound that gave them:

PDE Kidney; α (I50 theophylline / I50 compound) [1]	PDE Lung; α (I50 theophylline / I50 compound) [2]	Compound
2.50	2.50	Cc1cc(C)n2nc(SCCc3ccccc3)nc2n1 [Compound 23]
0.70	2.00	Cc1cc(C)n2nc(SCc3ccc4ccccc4n3)nc2n1 [Compound 20]
2.90	6.90	CCOC(=O)c1cnc2nc(SCc3ccccc3)nn2c1N1CCOCC1 [Compound 36]
1.40	4.00	Cc1cc(Cl)n2nc(SCc3ccccc3)nc2n1 [Compound 25, 2-benzylthio-7-chloro-5-methyl-s-triazolo[1,5a]pyrimidine]
0.00	0.60	Cc1cc(C)n2nc(SCC3CCCO3)nc2n1 (stereo not drawn) [Compound 22]
0.90	2.00	CCCNc1cc(C)nc2nc(SCc3ccccc3)nn12 [Compound 26]
0.00	0.00	CCOC(=O)c1cnc2nc(SCc3ccccc3)nn2c1O [Compound 34, 2-benzylthio-6-carbethoxy-7-hydroxy-s-triazolo [1,5a]pyrimidine]
1.25	3.2	CCOC(=O)c1ccc(CSc2nc3nc(C)cc(C)n3n2)o1 [Compound 21]
8.00	5.30	Cc1cc(NN(C)C)n2nc(SCc3ccccc3)nc2n1 [Compound 33]
3.20	10.0	Cc1cc(N2CCCCC2)n2nc(SCc3ccccc3)nc2n1 [Compound 30]
0.00	1.17	Cc1cc(C)n2nc(SCc3cccnc3)nc2n1 [Compound 19]
0.70	0.80	Cc1cc(C)n2nc(SCc3ccncc3)nc2n1 [Compound 18]
3.40	8.00	Cc1cc(N(C)C)n2nc(SCc3ccccc3)nc2n1 [Compound 28]
4.80	7.70	Cc1cc(N2CCOCC2)n2nc(SCc3ccccc3)nc2n1 [Compound 31]
